Consider one compound from ChEMBL document CHEMBL5046290, “Design, Synthesis, and Preclinical Profiling of GSK3739936 (BMS-986180), an Allosteric Inhibitor of HIV-1 Integrase with Broad-Spectrum Activity toward 124/125 Polymorphs” (J Med Chem, 2022).

Molecules are shown by their SMILES.

One series concerns UGT. The experiment in a line: Metabolic stability assessed as monkey UGT-mediated metabolism by measuring half life by phase II UGT conjugation assay. Format: ADME, Macaca mulatta. As to conditions: rhesus monkey.
Series [1] is described as follows: Permeability of the compound at pH 5.5 by PAMPA assay. Format: ADME. The conditions noted are these: read-out: permeability. On the technique in general: The PAMPA barrier holds no transporters, so it reflects passive diffusion.
The subject of the next series is CYP. The experiment in a line: Half life in monkey assessed as CYP mediated metabolism in presence of […] by phase I metabolic oxidation assay. Format: ADME, Macaca mulatta. As to conditions: rhesus monkey.
Series [2] is described as follows: Stability in pH 4 for 2 weeks at 50 degC. In kind it is physicochemical. As to conditions: buffer, pH 4, 336 h.

For `Cc1nc(C)c([C@H](OC(C)(C)C)C(=O)O)c(N2CCC(C)(C)CC2)c1-c1ccc(OCCc2ccc(F)cc2)cc1`, the figures for the half-life in the series on UGT and in the series with CYP were ≥ 120 min and 59 min, respectively. Also, in series [1], the Papp came out at 89.6 ×10⁻⁶ cm/s. Moreover, the Stability entry in series [2] is recorded as “Stable”.

For orientation: half-life means the time needed for the level to fall by half in the phase considered.
